Test system: Plasmodium berghei
Assay: Luciferase/luciferin-expressing antifolate-resistant parasites were used to infect a culture of HepG2 cells that were pre-incubated with compounds. Infected hepatocytes emit light due to the luciferase reaction. Assay results are presented as the percent inhibition of light emission compared to control. […]
Assay type: functional
Details: sporozoite; for IC90: read-out: LUCIFERASE INFECTION ASSAY - IC90

Row | Compound | IC90 [µM] | also measured
1 | CCOC(=O)Cc1ccc(NC(=O)c2ccc(C(C)(C)C)cc2)cc1 | 2.02 | IC50 (HEPG2TOX_HILL_SLOPE 1.28, HEPG2TOX_R_SQUARED 0.763, PBLUC_HILL_SLOPE 1.21, PBLUC_R_SQUARED 0.784, read-out: LUCIFERASE INFECTION ASSAY - IC50): 0.329 µM
2 | CC(C)(C)c1cc(C(=O)/C(C#N)=N/Nc2ccc(Cl)cc2)no1 | 4.32 | IC50 (HEPG2TOX_HILL_SLOPE 1.26, HEPG2TOX_R_SQUARED 0.947, PBLUC_HILL_SLOPE 9.91, PBLUC_R_SQUARED 0.6, read-out: LUCIFERASE INFECTION ASSAY - IC50): 3.46 µM
3 | Cc1cnc(C(=O)NNC(=O)CC23CC4CC(CC(C4)C2)C3)cn1 | 9.85 | IC50 (HEPG2TOX_HILL_SLOPE 1.28, HEPG2TOX_R_SQUARED 0.86, PBLUC_HILL_SLOPE 19.8, PBLUC_R_SQUARED 0.188, read-out: LUCIFERASE INFECTION ASSAY - IC50): 8.81 µM
4 | CC(=O)O/N=C1/CCn2c1c(C)c1ccccc12 | 5.74 | IC50 (HEPG2TOX_HILL_SLOPE 1.28, HEPG2TOX_R_SQUARED 0.99, PBLUC_HILL_SLOPE 11.8, PBLUC_R_SQUARED 0.596, read-out: LUCIFERASE INFECTION ASSAY - IC50): 4.77 µM
5 | COc1cccc(C(=O)Nc2nc3ccc(Br)cn3n2)c1 | > 9.51 | IC50 (HEPG2TOX_HILL_SLOPE 1.29, HEPG2TOX_R_SQUARED 0.954, read-out: LUCIFERASE INFECTION ASSAY - IC50): > 9.51 µM
6 | COc1ccc(-c2csc(NC(=O)CN3CCN(c4ncnc5c4cnn5C)CC3)n2)cc1 | 3.88 | IC50 (HEPG2TOX_HILL_SLOPE 1.28, 1.59, HEPG2TOX_R_SQUARED 0.849, 0.471, PBLUC_HILL_SLOPE 15.7, 12.8, PBLUC_R_SQUARED 0.495, 0.575, read-out: LUCIFERASE INFECTION ASSAY - IC50): 3.31 µM
7 | CC(C)CC(=O)NC(=S)Nc1ccc(S(=O)(=O)N(C)Cc2ccccc2)cc1 | 4.58 | IC50 (HEPG2TOX_HILL_SLOPE 1.27, HEPG2TOX_R_SQUARED 0.987, PBLUC_HILL_SLOPE 1.32, PBLUC_R_SQUARED 0.74, read-out: LUCIFERASE INFECTION ASSAY - IC50): 0.868 µM
8 | CCCCC(CC)C[n+]1c(C)cc(C=C2Sc3ccccc3N2CC)cc1C (configuration not stated) | 0.111 | IC50 (HEPG2TOX_HILL_SLOPE 1.26, HEPG2TOX_R_SQUARED 0.976, PBLUC_HILL_SLOPE 1.65, PBLUC_R_SQUARED 0.944, read-out: LUCIFERASE INFECTION ASSAY - IC50): 0.0293 µM
9 | Cc1cc(=O)nc(N/N=C/c2ccccc2O)[nH]1 | > 13.5 | IC50 (HEPG2TOX_HILL_SLOPE 1.27, HEPG2TOX_R_SQUARED 0.681, PBLUC_HILL_SLOPE 2.52, PBLUC_R_SQUARED 0.516, read-out: LUCIFERASE INFECTION ASSAY - IC50): 6.93 µM
10 | COc1cc(OC)c(NC(=O)CN2CCN(Cc3csc4ccccc34)CC2)cc1Cl | 9.45 | IC50 (HEPG2TOX_HILL_SLOPE 1.28, HEPG2TOX_R_SQUARED 0.885, PBLUC_HILL_SLOPE 11.3, PBLUC_R_SQUARED 0.661, read-out: LUCIFERASE INFECTION ASSAY - IC50): 7.79 µM
11 | COc1cccc(CN2CCN3C(C(=O)Nc4ccc(F)c(Cl)c4)=COC3=NC2=O)c1 | > 10 | IC50 (HEPG2TOX_HILL_SLOPE 1.28, HEPG2TOX_R_SQUARED 0.654, PBLUC_HILL_SLOPE 1.61, PBLUC_R_SQUARED 0.572, read-out: LUCIFERASE INFECTION ASSAY - IC50): 3.18 µM
12 | Cc1cc(C(=O)Nc2nc3ccc(Cl)cc3s2)c2c(C)nn(C)c2n1 | 9.09 | IC50 (HEPG2TOX_HILL_SLOPE 1.29, HEPG2TOX_R_SQUARED 0.966, PBLUC_HILL_SLOPE 2.52, PBLUC_R_SQUARED 0.194, read-out: LUCIFERASE INFECTION ASSAY - IC50): 3.81 µM
13 | Nc1ncc(-c2cccc(OC(F)(F)F)c2)cc1-c1cccnc1 | > 9.96 | IC50 (HEPG2TOX_HILL_SLOPE 1.26, HEPG2TOX_R_SQUARED 0.924, PBLUC_HILL_SLOPE 2.1, PBLUC_R_SQUARED 0.295, read-out: LUCIFERASE INFECTION ASSAY - IC50): 5.18 µM
14 | COc1cc(C)c(CN2CCC(c3nc4ccccc4s3)CC2)cc1OC | 5.49 | IC50 (HEPG2TOX_HILL_SLOPE 1.28, HEPG2TOX_R_SQUARED 0.688, PBLUC_HILL_SLOPE 2.8, PBLUC_R_SQUARED 0.756, read-out: LUCIFERASE INFECTION ASSAY - IC50): 2.5 µM
15 | CCOC(=O)c1[nH]c(C)c(C(=O)/C=C/c2c(C)nn3c(C(F)(F)F)ccnc23)c1C | 0.365 | IC50 (HEPG2TOX_HILL_SLOPE 1.29, HEPG2TOX_R_SQUARED 0.824, PBLUC_HILL_SLOPE 0.936, PBLUC_R_SQUARED 0.825, read-out: LUCIFERASE INFECTION ASSAY - IC50): 0.0349 µM
16 | Cc1cc(C(=O)NNC(=O)c2c(C)nc3ccccn23)c2nc3n(c2n1)CCCCC3 | 0.662 | IC50 (HEPG2TOX_HILL_SLOPE 1.28, HEPG2TOX_R_SQUARED 0.815, PBLUC_HILL_SLOPE 3.27, PBLUC_R_SQUARED 0.895, read-out: LUCIFERASE INFECTION ASSAY - IC50): 0.338 µM

Row | Compound | IC90 [µM] | also measured
17 | Cc1cc(C(=O)COc2ccc(C(N)=O)cc2)c(C)n1-c1ccc2c(c1)OCO2 | 5.43 | IC50 (HEPG2TOX_HILL_SLOPE 1.28, HEPG2TOX_R_SQUARED 0.792, PBLUC_HILL_SLOPE 4.73, PBLUC_R_SQUARED 0.266, read-out: LUCIFERASE INFECTION ASSAY - IC50): 3.41 µM
18 | Cc1ccc(Nc2nccc(C(F)(F)F)n2)cc1S(=O)(=O)N(C)C | > 10 | IC50 (HEPG2TOX_HILL_SLOPE 1.28, HEPG2TOX_R_SQUARED 0.583, PBLUC_HILL_SLOPE 1.84, 1.48, PBLUC_R_SQUARED 0.674, 0.430, read-out: LUCIFERASE INFECTION ASSAY - IC50): 4.96 µM
19 | COc1ccc2c(-c3sc(Nc4ccc(C(C)C)cc4)c(-c4nc5ccccc5s4)c3N)cc(=O)oc2c1 | 2.94 | IC50 (HEPG2TOX_HILL_SLOPE 1.27, HEPG2TOX_R_SQUARED 0.95, PBLUC_HILL_SLOPE 4.32, PBLUC_R_SQUARED 0.419, read-out: LUCIFERASE INFECTION ASSAY - IC50): 1.76 µM
20 | CC(C)c1ccc(/C=C/c2ccc(=O)[nH]n2)cc1 | 0.563 | IC50 (HEPG2TOX_HILL_SLOPE 1.26, HEPG2TOX_R_SQUARED 0.973, PBLUC_HILL_SLOPE 20.6, PBLUC_R_SQUARED 0.746, read-out: LUCIFERASE INFECTION ASSAY - IC50): 0.506 µM
21 | Nc1nc2ccc(C(=O)N3CCN(C/C=C/c4ccccc4)CC3)cc2s1 | > 10 | IC50 (HEPG2TOX_HILL_SLOPE 1.29, HEPG2TOX_R_SQUARED 0.665, PBLUC_HILL_SLOPE 22.8, PBLUC_R_SQUARED 0.0313, read-out: LUCIFERASE INFECTION ASSAY - IC50): > 10 µM
22 | COc1ccc(-c2nnc(SC(C)C(=O)NCCC3=CCCCC3)[nH]2)cc1 (configuration not stated) | 0.379 | IC50 (HEPG2TOX_HILL_SLOPE 1.28, HEPG2TOX_R_SQUARED 0.906, PBLUC_HILL_SLOPE 22.1, PBLUC_R_SQUARED 0.622, read-out: LUCIFERASE INFECTION ASSAY - IC50): 0.343 µM
23 | CCOC(=O)c1c(C)nn(-c2ncccc2NC(=O)Nc2cccc(Cl)c2Cl)c1C | > 7.36 | IC50 (HEPG2TOX_HILL_SLOPE 1.28, HEPG2TOX_R_SQUARED 0.665, PBLUC_HILL_SLOPE 11.5, PBLUC_R_SQUARED 0.0917, read-out: LUCIFERASE INFECTION ASSAY - IC50): 6.84 µM
24 | Cc1ccc2c(c1)nc1n2CN(CCN2CCOCC2)CN1Cc1ccccc1 | 1.1 | IC50 (HEPG2TOX_HILL_SLOPE 1.27, HEPG2TOX_R_SQUARED 0.847, PBLUC_HILL_SLOPE 11.9, PBLUC_R_SQUARED 0.472, read-out: LUCIFERASE INFECTION ASSAY - IC50): 0.911 µM
25 | CCOC(=O)c1sc(N)c(C#N)c1CSc1nnc(Nc2ccc(CC)cc2)s1 | 5.14 | IC50 (HEPG2TOX_HILL_SLOPE 1.26, HEPG2TOX_R_SQUARED 0.992, PBLUC_HILL_SLOPE 3.19, PBLUC_R_SQUARED 0.556, read-out: LUCIFERASE INFECTION ASSAY - IC50): 2.58 µM
26 | COc1ccc(C(=O)COC(=O)Cc2cccc(C(F)(F)F)c2)cc1 | 1.69 | IC50 (HEPG2TOX_HILL_SLOPE 1.29, HEPG2TOX_R_SQUARED 0.956, PBLUC_HILL_SLOPE 8.73, PBLUC_R_SQUARED 0.385, read-out: LUCIFERASE INFECTION ASSAY - IC50): 1.32 µM
27 | O=C(NCCCn1cnc2ccccc21)c1ccc(Oc2ccc(F)cc2)cc1 | > 10 | IC50 (HEPG2TOX_HILL_SLOPE 1.27, HEPG2TOX_R_SQUARED 0.899, PBLUC_HILL_SLOPE 1.4, PBLUC_R_SQUARED 0.524, read-out: LUCIFERASE INFECTION ASSAY - IC50): 5.3 µM
28 | NC(=O)c1ccsc1NC(=O)CSc1ncc(-c2ccccc2)n1-c1ccccc1 | 3.1 | IC50 (HEPG2TOX_HILL_SLOPE 1.27, HEPG2TOX_R_SQUARED 0.954, PBLUC_HILL_SLOPE 1.14, PBLUC_R_SQUARED 0.72, read-out: LUCIFERASE INFECTION ASSAY - IC50): 0.447 µM
29 | N#CCCNS(=O)(=O)c1cccc(C(=O)Nc2ccc(Nc3ccccc3)cc2)c1 | 4.83 | IC50 (HEPG2TOX_HILL_SLOPE 1.27, HEPG2TOX_R_SQUARED 0.641, PBLUC_HILL_SLOPE 2.13, PBLUC_R_SQUARED 0.388, read-out: LUCIFERASE INFECTION ASSAY - IC50): 1.72 µM
30 | O=C(Cc1ccc(O)cc1)N1CCc2nc(NCc3cccc(Oc4ccccc4)c3)ncc2C1 | 4.97 | IC50 (HEPG2TOX_HILL_SLOPE 1.26, HEPG2TOX_R_SQUARED 0.949, PBLUC_HILL_SLOPE 2.67, PBLUC_R_SQUARED 0.466, read-out: LUCIFERASE INFECTION ASSAY - IC50): 2.18 µM
31 | COc1ccc(/C(C#N)=C/c2ccccc2OC)cc1 | 2.26 | IC50 (HEPG2TOX_HILL_SLOPE 1.28, HEPG2TOX_R_SQUARED 0.968, PBLUC_HILL_SLOPE 1.65, PBLUC_R_SQUARED 0.898, read-out: LUCIFERASE INFECTION ASSAY - IC50): 0.597 µM

— ChEMBL document CHEMBL4483862, “Open-source discovery of chemical leads for next-generation chemoprotective antimalarials” (2018)
